From patent US6906205B2, “Spiro and dispiro 1,2,4-trioxolane antimalarials” (Medicines for Malaria Venture MMV, priority 2002, dated 2005)
In brackets after ≈: the same amount, converted by molar mass.

Key:
[1] = system: P. falciparum K1 strain (Thailand resistant to chloroquine); experiment: semiautomated microdilution assay, [3H]-hypoxanthine incorporation, K1 strain; type: cell-based, Plasmodium falciparum; conditions: K1 strain, 72 h incubation
How it was run: (§1)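 Logit regression analysis was used to estimate IC50 values. Parasites were intraerythrocytic forms from asynchronous stock cultures, and compounds were tested by semiautomated microdilution.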

[2] = system: P. falciparum NF54 strain (sensitive to standard antimalarials); experiment: semiautomated microdilution assay, [3H]-hypoxanthine incorporation, NF54 strain; type: cell-based, Plasmodium falciparum; conditions: NF54 strain, 72 h incubation
How it was run: as §1

[3] = system: ANKA strain of P. berghei; experiment: single dose STI in vivo screen in infected mice; design: species or system Plasmodium berghei; conditions: for Activity (%) po / Activity (%) sc / Activity (%) SSVpo: percent reduction in parasitemia day 3 post-infection, mice; for Activity (%) po / Survival (days) po: single 10 mg/kg po in 3% ethanol and 7% Tween 80; for Activity (%) sc / Survival (days) sc: single 10 mg/kg sc in 3% ethanol and 7% Tween 80; for Activity (%) SSVpo: single po dose in standard suspending vehicle (SSV); for Survival (days) po / Survival (days) sc / Survival (days) SSVpo: untreated control 5.6 ± 0.3; for Survival (days) SSVpo: single po dose in SSV
How it was run: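 Groups of 3-5 Moro SPF or NMRI mice infected with the ANKA strain of P. berghei received a single dose of trioxolane on day one post-infection. The compound was given in 3% ethanol and 7% Tween 80 or in SSV (0.5% w/v CMC, 0.5% v/v benzyl alcohol, 0.4% v/v Tween 80, 0.9% w/v sodium chloride in water). Antimalarial activity was scored as percent reduction in parasitemia on day three and as survival time versus untreated controls. Survival to day 30 counted as cure.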

[4] = system: Schistosoma mansoni 21-day-old schistosomules; experiment: effect on 21-day-old schistosomules in mice; type: in vivo; conditions: single 200 mg/kg per os, female mice
Experimental: All groups were killed 4 weeks after treatment and the liver and intestine were removed and separated. The liver and intestine were compressed and alive male and female worms could be seen and counted. The effect of the compounds was evaluated by mean total and female worm burden.

[5] = system: Schistosoma mansoni adult schistosomes (49-day-old); experiment: effect on adult schistosomes (49-day-old) in mice; type: in vivo; conditions: for % reduction of adult worms growth at day 49 after per os application of 400 mg/kg, TWR (%) / adult worms at day 49, per os 400 mg/kg, DEAD WORM (%): single 400 mg/kg per os; for Tox (mice): infected mice
Experimental: Mice were infected with 100 Schistosoma mansoni cercariae […]. Each group was treated per os with OZ compounds at single doses of 200, 400, and 600 mg/kg. […] All groups were killed 4 weeks after treatment and the liver and intestine were removed and separated. The liver and intestine were compressed and alive male and female worms could be seen and counted.

Structure (SMILES)	IC50 (ng/ml) K1 [1]	IC50 (ng/ml) NF54 [2]	Activity (%) po [3] [%]	Activity (%) sc [3] [%]	Activity (%) SSVpo [3] [%]	Survival (days) po [3] [days]	Survival (days) sc [3] [days]	Survival (days) SSVpo [3] [days]	% reduction of schistosomule growth at day 21 after per os application of 200 mg/kg, FWR (%) [4] [%]	% reduction of schistosomule growth at day 21 after per os application of 200 mg/kg, TWR (%) [4] [%]	% reduction of adult worms growth at day 49 after per os application of 400 mg/kg, TWR (%) [5]	adult worms at day 49, per os 400 mg/kg, DEAD WORM (%) [5] [%]	Activity (%) po ([3]; 10 mg/kg) [%]	Activity (%) sc ([3]; 10 mg/kg) [%]	Survival (days) sc ([3]; 10 mg/kg) [days]	Survival (days) po ([3]; 10 mg/kg) [days]	Tox (mice) ([5]; 200 mg/kg per os)	Tox (mice) ([5]; 400 mg/kg per os)	% reduction of adult worms growth at day 49 after per os application of 200 mg/kg, TWR (%) ([5]; single 200 mg/kg per os)	adult worms at day 49, per os 200 mg/kg, DEAD WORM (%) ([5]; single 200 mg/kg per os)
ON=C1CCC2(CC1)OOC1(O2)C2CC3CC(C2)CC1C3 (centres unmarked) [OZ16]	0.45 ng/mL (≈ 1.53 nM)	0.67 ng/mL (≈ 2.28 nM)	79	99.2	83	6.7	7.3	6.7	77	78	–	–	–	–	–	–	–	–	–	–
c1ccc(CON=C2CCC3(CC2)OOC2(O3)C3CC4CC(C3)CC2C4)cc1 (centres unmarked) [OZ19]	1.3 ng/mL (≈ 3.39 nM)	2.7 ng/mL (≈ 7.04 nM)	98.3	99.98	56	7.5	13.4	6.0	74	77	–	–	–	–	–	–	–	–	–	–
C1CC2(CCO1)OOC1(O2)C2CC3CC(C2)CC1C3 (centres unmarked) [OZ22]	0.32 ng/mL (≈ 1.2 nM)	0.56 ng/mL (≈ 2.1 nM)	35	99.6	–	6.0	7.7	–	76	75	–	–	–	–	–	–	–	–	–	–
CC1(C)CC(C)(C)CC2(C1)OOC1(O2)C2CC3CC(C2)CC1C3 (centres unmarked) [OZ26]	3.1 ng/mL (≈ 9.67 nM)	5.0 ng/mL (≈ 15.6 nM)	88	99.9	–	7.0	9.7	–	40	37	–	–	–	–	–	–	–	–	–	–
CC(C)(C)ON=C1CCC2(CC1)OOC1(O2)C2CC3CC(C2)CC1C3 (centres unmarked) [OZ28]	2.1 ng/mL (≈ 6.01 nM)	2.5 ng/mL (≈ 7.15 nM)	93	99.97	–	7.3	12.3	–	87	81	–	–	–	–	–	–	–	–	–	–
O=C(NN=C1CCC2(CC1)OOC1(O2)C2CC3CC(C2)CC1C3)Nc1ccccc1 (centres unmarked) [OZ30]	0.65 ng/mL (≈ 1.58 nM)	1.3 ng/mL (≈ 3.16 nM)	0	86	–	5.3	9.0	–	12	16	–	–	–	–	–	–	–	–	–	–
CC1(C)CCC2(CC1)OOC1(O2)C2CC3CC(C2)CC1C3 (centres unmarked) [OZ33]	2.3 ng/mL (≈ 7.87 nM)	3.5 ng/mL (≈ 12 nM)	80	99.97	–	6.7	11.7	–	14	28	–	–	–	–	–	–	–	–	–	–
CC(C)(C)OC(=O)N1CCC2(CC1)OOC1(O2)C2CC3CC(C2)CC1C3 (centres unmarked) [OZ35]	1.7 ng/mL (≈ 4.65 nM)	2.1 ng/mL (≈ 5.75 nM)	74	99.98	–	6.3	9.3	–	63	73	–	–	–	–	–	–	–	–	–	–
CON=C1CC2CC3(CC2C1)OOC1(O3)C2CC3CC(C2)CC1C3 (centres unmarked) [OZ37]	–	–	83	99.98	–	6.7	13	–	53	63	–	–	–	–	–	–	–	–	–	–
CC(C)(C)CC(=O)N1CCC2(CC1)OOC1(O2)C2CC3CC(C2)CC1C3 (centres unmarked) [OZ111]	0.92 ng/mL (≈ 2.53 nM)	–	98	99.94	79	7.7	8.3	6.3	68	71	–	–	–	–	–	–	–	–	–	–
CCN(CC)CC[C@H]1CC[C@]2(CC1)OOC1(O2)C2CC3CC(C2)CC1C3 (some centres unmarked) [OZ126]	0.20 ng/mL (≈ 0.55 nM)	0.50 ng/mL (≈ 1.38 nM)	55	99.44	72	7.0	8.5	6.7	–	–	0%	9	–	–	–	–	–	–	–	–
O=C1COC2(CCC3(CC2)OOC2(O3)C3CC4CC(C3)CC2C4)OC1 (centres unmarked) [OZ130]	0.62 ng/mL (≈ 1.77 nM)	0.94 ng/mL (≈ 2.68 nM)	98.8	98.6	98.9	9.0	7.3	8.0	–	–	0%	8	–	–	–	–	–	–	–	–
O=C([C@H]1CC[C@]2(CC1)OOC1(O2)C2CC3CC(C2)CC1C3)N1CCN(c2ccccc2)CC1 (some centres unmarked) [OZ140]	5.9 ng/mL (≈ 13 nM)	8.2 ng/mL (≈ 18.1 nM)	0	60	8	6.0	7.0	6.3	–	–	0%	3	–	–	–	–	–	–	–	–
O=C(OC[C@H]1CC[C@]2(CC1)OOC1(O2)C2CC3CC(C2)CC1C3)N1CCN(c2ccccc2)CC1 (some centres unmarked) [OZ148]	17 ng/mL (≈ 35.2 nM)	16 ng/mL (≈ 33.2 nM)	38	21	58	7.3	6.3	7.7	–	–	25%	0	–	–	–	–	–	–	–	–
OC12CC3CC(C1)C1(OOC4(CCC5(CC4)OCCO5)O1)C(C3)C2 (centres unmarked) [OZ153]	7.7 ng/mL (≈ 22.8 nM)	19 ng/mL (≈ 56.1 nM)	–	–	23	6.3	–	7.0	–	–	No alive/dead worm*	–	15	20	6.3	–	–	–	–	–
CC1(C)COC(c2ccc([C@H]3CC[C@]4(CC3)OOC3(O4)C4CC5CC(C4)CC3C5)cc2)=N1 (some centres unmarked) [OZ154]	5.0 ng/mL (≈ 11.4 nM)	6.1 ng/mL (≈ 13.9 nM)	–	–	81	–	–	8.7	–	–	58%	0	99.74	59	7.7	14.7	–	–	–	–
O=C(C[C@H]1CC[C@]2(CC1)OOC1(O2)C2CC3CC(C2)CC1C3)N1CCOCC1 (some centres unmarked) [OZ189]	1.7 ng/mL (≈ 4.34 nM)	3.0 ng/mL (≈ 7.66 nM)	95	98	99.79	9.3	10.7	9.0	–	–	–	–	–	–	–	–	*Tox: 2/3	Tox: 3/3 ^	0	17
C1=C(c2ccccc2)CCC2(C1)OOC1(O2)C2CC3CC(C2)CC1C3 (centres unmarked) [OZ226]	4.0/4.0 ng/ml	4.0/4.0 ng/ml	0	99.92	0	5.0	11.0	5.3	–	–	52%	0	–	–	–	–	–	–	–	–
